Results published in US11179452B2, “Antigen specific multi epitope vaccines” (priority 2006, dated 2021).

How the values were obtained:
Type in all cases: cell-based, human
PBL [1] = assay: ELISA of cytokine secretion by PBL stimulated once with peptide-pulsed DC
Procedure: (§1) Human PBMC were separated from buffy coat samples of naive donors using Ficoll UNI-SEPmaxi tube. Separated cells were suspended in RPMI medium supplemented with 10% FCS, L-Glutamine, Sodium Pyruvate, MEM-EAGLE non-essential amino-acids, HEPES and Gentamycin Sulphate (Bet-Haemek Industries, IL) and cultivated for 4 h at 37° C. in a culture dish (Corning 150 mm×25 mm). Adherent cells were collected and cultured for 7 days in serum free DCCM-1 medium supplemented with L-Glutamine, huIL-4 (1000 IU/ml) (Cytolab IL) and GM-CSF-80 ug/ml (Cytolab IL). On day seven floating cells were collected and loaded with 50 ug/ml of examined peptide for 18 h at 37° C.
(§2) Cytokine release was studied during the culture of stimulated T-cells. The evaluated samples were collected from the T cell culture medium on day 2, 3, and 5 and stored until use at −20° C.
(§3) […] of the selected capture antibody (e.g. anti-Hu IFN-Gamma, or anti-Hu TNF-alfa or anti IL-2) were added to each well at the final concentration of 5 μg/ml in PBS. Plates were incubated for 2 h at R.T. or over night at 4° C. Next, […] of blocking solution were added for an incubation of 2 h at R.T. […] of evaluated samples were added in duplicate into 2 wells for 2 hours at RT. After 2 h of incubation at R.T plates were washed λ4 times in washing solution. In the next step, a Biotin-conjugated detection antibody (relevant to coated antibody) was added at a final concentration of 10 μg/ml in total volume of 100 μl for 1 h at R.T. Finally, 100 μl/well working dilution (1:10000 in Blocker solution) of Streptavidin-HRP were added to each well and incubated for 1 h at R.T.
(§4) Plates were washed λ6 times with PBS-Tween (0.4%) and 100 μl/well of TMB/E Solution (CHEMICON, Catalog #ES001) was added. The plates were then exposed until blue color appeared in the wells of the positive control and no color was detected in the blank wells. To stop the color reaction, 50 μl/well of 10% of Sulfuric acid was added. The plates were counted in ELISA-Reader using a 450 nm filter.

[2] = tested on: ImMucin specific T-cell subpopulation; assay: Proliferation of the ImMucin-specific T-cell subpopulation after three stimulations; conditions: one out of two experiments, four donors
Description: (§5) Thawed PBLs underwent 1st stimulation with ImMucin pulsed Autologues DC at a ratio of 20:1 and cultured for 7 days in dedicated T cell Medium. T cell medium contained RPMI medium supplemented with 10% FCS, L-Glutamine, Sodium Pyruvate, MEM-EAGLE non-essential amino-acids, HEPES and Gentamycin Sulphate (Bet-Haemek Industries, IL) as well as with 50 IU/ml of recombinant IL-7 (Cytolab IL). For the second stimulation, PBL were transferred to adherent autologues ImMucin-pulsed PBMC and cultured for additional 5 days in T cell Medium. At the end of the 5 days, medium was partial replaced with fresh medium containing 1 ug/ml of ImMucin and 50 IU/ml IL-2 for a third stimulation of 48 h at 37° C. Following the last stimulation ImMucin T cell line was checked for immune activation properties.
(§6) Proliferation analysis was conducted in three different methods. In all three methods, plates were cultured for 3-5 days under visual control and then 0.5 […]Cu/well of 3[H] (Amersham) was added for additional culture of to 18 h at 37° C. In the last step, plates were harvested and the radioactive counts were measured in a □ counter. • 1. DC indirect presentation: In the first method, 100 µl of 2×10^6 thawed PBL were placed in U-shape Bottom 96 well plate (Nunc) with RPMI medium supplemented with 5% H AB serum, L-Glutamine, Sodium Pyruvate, MEM-EAGLE non-essential amino-acids, HEPES and Gentamycin. At the next stage 100 µl of 25×10^4 peptide-pulsed DC were added to each three wells of PBL and underwent proliferation analysis as described above. • 2. PBL direct presentation: In the 2nd method, 100 µl of 2×10^6 PBL were placed in Flat Bottom 96 well plates (Corning) and stimulated with different concentrations (0.05 ug/ml-2 ug/ml) of peptides. In the next step the cells underwent proliferation analysis as described above. • 3. PBMC direct presentation: In third method PNMC were used under similar conditions as described for the second method.
(§7) For that purpose, an enriched ImMucin-specific T cell subpopulation was produced via repeated stimulation with ImMucin. The specificity of the subpopulation for ImMucin, as well as to the other VXL epitopes, was examined using proliferation assays, cytokine release assays, FACS analysis in which the percentage and type of cells enriched during the enrichment process was analyzed, and using a CTL assay against selected target cells.
(§8) For producing the specific T cell subpopulation PBL were stimulated three times for 7, 5 and 2 days with ImMucin presented via DC and PBMC. Following the 3rd stimulation the cells were evaluated against the different VXL epitopes.

PBL [3] = assay: Proliferation of PBL, direct presentation of peptide without APC; conditions: for Optimal dose Direct no APC: optimal dose required for PBL activation, six donors; for Optimal dose Direct no APC / Peak of Proliferation (Hours) Direct no APC: average of 5 experiments; for Peak of Proliferation (Hours) Direct no APC: visual inspection daily during 5 days
Procedure: In all three methods, plates were cultured for 3-5 days under visual control and then 0.5 □Cu/well of 3[H] (Amersham) was added for additional culture of to 18 h at 37° C. […] DC indirect presentation: In the first method, 100 µl of 2×10^6 thawed PBL were placed in U-shape Bottom 96 well plate (Nunc) with RPMI medium supplemented with 5% H AB serum, L-Glutamine, Sodium Pyruvate, MEM-EAGLE non-essential amino-acids, HEPES and Gentamycin. At the next stage 100 µl of 25×10^4 peptide-pulsed DC were added to each three wells of PBL and underwent proliferation analysis as described above. • 2. PBL direct presentation: In the 2nd method, 100 µl of 2×10^6 PBL were placed in Flat Bottom 96 well plates (Corning) and stimulated with different concentrations (0.05 ug/ml-2 ug/ml) of peptides. In the next step the cells underwent proliferation analysis as described above. • 3. PBMC direct presentation: In third method PNMC were used under similar conditions as described for the second method.
Direct presentation of peptides to PBL without any APC

PBMC = assay: Proliferation, direct presentation of peptide via PBMC (monocytes); conditions: for PBL Index of stimulation (SI) via PBMC: naive donors, representative of 5 experiments; for Optimal dose via PBMC: optimal dose required for PBL activation, six donors; for Optimal dose via PBMC / Peak of Proliferation (Hours) via PBMC: average of 5 experiments; for Peak of Proliferation (Hours) via PBMC: visual inspection daily during 5 days
Procedure: as §6
b. Direct presentation of the peptides via PBMC i.e. monocytes
(§9) Five experiments were performed according to the protocol described in material and methods with buffy-coat enriched PBLs obtained from six different naive donors (obtained from the Israeli blood bank).

[4] = tested on: T-Cell specific subpopulation (Clones); assay: ELISA of cytokine secretion by the T-cell specific subpopulation (clones) stimulated with peptides; conditions: two experiments, four donors
Description: as §5, §2, §3, §4, §7, §8

PBL [5] = assay: Proliferation of PBL, DC indirect presentation (peptide-pulsed autologous DC); conditions: for Optimal dose via DC: optimal dose required for PBL activation; for Optimal dose via DC / Peak of Proliferation (Hours) via DC: average of 5 experiments; for Peak of Proliferation (Hours) via DC: visual inspection by light microscopy daily during 5 days; for IS (as indicated in Table 12): two donors
Procedure: as §1, §6
In the first set of experiments, the 21mer ImMucin, its different 9mer epitopes and other control epitopes (Table 3) were evaluated in proliferation assays with the aim of finding their optimal mode of presentation, stimulated dose as well as their peak of activity (time wise).
To evaluate the most efficient method for priming of PBLs with the different peptides, the following methods were compared:
a. In-direct presentation of the peptide via Autologues-pulsed DC
as §9

[6] = tested on: lymphocytes from naive donors; assay: Proliferation assay, kinetics of lymphocyte activation as summarised in text (presentation mode not stated); conditions: summary of five experiments
Procedure: as §6
A different parameter for assessing the properties of ImMucin and the other VXL-peptide epitopes is by analyzing the time until a maximal peak of activity occurs and the optimal dose for maximal stimulation. Maximal peak of PBL activation is determined when <50% of the PBLs appear in clumps. In these experiments, the kinetic (time) in the proliferation of lymphocytes from the six naive donors stimulated at a fix dose of 0.05-1 ug/ml by ImMucin and other VXL-Peptides, was observed.

[7] = peptide DC ratio 16:1, one out of five experiments, six donors
[8] = naive donors, representative of 5 experiments
[9] = naive donors, CPM sample / CPM control, representative of 5 experiments
[10] = peptide pulsed DC ratio 16:1, one out of two experiments, two donors (Table 12)
[11] = average of two healthy donors (Table 11)

Compound: CSCC[C@H](N)C(=O)N[C@@H](CC(C)C)C(=O)N[C@@H](CC(C)C)C(=O)N[C@@H](C)C(=O)N[C@H](C(=O)N[C@@H](CC(C)C)C(=O)N[C@@H](Cc1ccc(O)cc1)C(=O)N[C@@H](CS)C(=O)N[C@@H](CC(C)C)C(=O)O)C(C)C [VXL-11, MLLAVLYCL, reference compound]
- IFN-gamma (PBL [1]; [7]): 0 ng/mL
- IL-2 (PBL [1]; [7]): 0 ng/mL
- IS (Average) [2]: 1.14
- IS (Range) [2]: 1-1.28
- PBL Index of stimulation (SI) Direct no APC (PBL [3]; [8]): 0
- Optimal dose Direct no APC (PBL [3]): No Influence
- Peak of Proliferation (Hours) Direct no APC (PBL [3]): No proliferation
- PBL Index of stimulation (SI) via PBMC (PBMC): 1.25
- Optimal dose via PBMC (PBMC): 0.05 to 1 µg/mL
- Peak of Proliferation (Hours) via PBMC (PBMC): 96 h
- IL-2 % of clones [4]: 0%
- IL-2 Range [4]: 0 ng/mL
- INF-gamma % of clones [4]: 33%
- INF-gamma Range [4]: 2.2 to 4.7 ng/mL
- TNF-Alfa % of clones [4]: 0%
- TNF-Alfa Range [4]: 0 ng/mL
- PBL Index of stimulation (SI) via DC (PBL [5]; [9]): 1.65
- IS (SI of the peptides as indicated in Table 7) (PBL [5]; one out of five experiments, six donors): 1.65
- Optimal dose via DC (PBL [5]; six donors): 12.5-25 × × 10e6/well
- Peak of Proliferation (Hours) via DC (PBL [5]): 96 h

Compound: ALCRWGLLL [VXL-8, reference compound]
- peak of proliferation / maximum stimulation [6]: 120 h
- PBL Index of stimulation (SI) Direct no APC (PBL [3]; [8]): 0
- Optimal dose Direct no APC (PBL [3]): No Influence
- Peak of Proliferation (Hours) Direct no APC (PBL [3]): No proliferation
- PBL Index of stimulation (SI) via PBMC (PBMC): 1.5
- Optimal dose via PBMC (PBMC): 0.05 to 1 µg/mL
- Peak of Proliferation (Hours) via PBMC (PBMC): 120 h
- PBL Index of stimulation (SI) via DC (PBL [5]; [9]): 1.75
- Optimal dose via DC (PBL [5]; six donors): 12.5-25 × × 10e6/well
- Peak of Proliferation (Hours) via DC (PBL [5]): 120 h

Compound: MAARAVFLAL SAQLLQA (MAARAVFLALSAQLLQA; listed as Homo sapiens) [VXL-102, signal peptide vaccine derived from melanoma associated TAA BAGE]
- TNF-Alfa (PBL [1]; [10]): 15.5 ng/mL
- PBL Index of stimulation (SI) Direct no APC (PBL [3]; [11]): 0
- IS (as indicated in Table 12) (PBL [5]): 1.9

Compound: MWATQGLAVALALSVLPGSRA (MWATQGLAVALALSVLPGSRA; listed as Homo sapiens) [VXL-101, signal peptide vaccine derived from ARMET]
- IL-2 (PBL [1]; [10]): 0 ng/mL
- TNF-Alfa (PBL [1]; [10]): 10.5 ng/mL
- PBL Index of stimulation (SI) Direct no APC (PBL [3]; [11]): 0
- PBL Index of stimulation (SI) via DC (PBL [5]; [11]): 2.8
- PBL Index of stimulation (SI) via DC (PBL [5]; average of two healthy donors (Table 11), listed as Armet): highest SI
- IS (as indicated in Table 12) (PBL [5]): 2.8
